Assay results as given in patent publication US20220119411A1, “IMMUNOMODULATORS, COMPOSITIONS AND METHODS THEREOF” (BETTA PHARMACEUTICALS CO., LTD, priority 2018, published 2022).

target: T1, PD-1/PD-L1 protein/protein interaction (Homo sapiens, UniProt Q9NZQ7); assay: PD-1/PD-L1 homogenous time-resolved fluorescence (HTRF) binding assay; settings: recombinant human PD-L1 (19-238)-His 10 nM, human PD-1 (25-167)-Fc 3 nM, 25° C., PBS pH 7.4
T1 construct: Recombinant human PD-L1 protein (19-238) with a His-tag at the C-terminus; purchased AcroBiosystems PD1-H5229 (PD-L1); PD1-H5257 (PD-1)
T1 sequence (Q9NZQ7 19-238): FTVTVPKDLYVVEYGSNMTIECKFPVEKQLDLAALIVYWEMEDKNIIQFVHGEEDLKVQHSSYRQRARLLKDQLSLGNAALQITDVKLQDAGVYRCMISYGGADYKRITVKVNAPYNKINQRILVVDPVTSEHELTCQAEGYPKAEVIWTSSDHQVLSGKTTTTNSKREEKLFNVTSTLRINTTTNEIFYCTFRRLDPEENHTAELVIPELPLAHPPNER
Protocol: Resolved Fluorescence (HTRF) Binding Assay
The assays were conducted in a standard black 384-well polystyrene plate with a final volume of 20 μL. Inhibitors were first serially diluted in DMSO and then added to the plate wells before the addition of other reaction components. The final concentration of DMSO in the assay was 1%. The assays were carried out at 25° C. in the PBS buffer (pH 7.4) with 0.05% Tween-20 and 0.1% BSA. Recombinant human PD-L1 protein (19-238) with a His-tag at the C-terminus was purchased from AcroBiosy stems (PD1-H5229). Recombinant human PD-1 protein (25-167) with Fc tag at the C-terminus was also purchased from AcroBiosystems (PD1-H5257). PD-L1 and PD-1 proteins were diluted in the assay buffer and 10 μL was added to the plate well. Plates were centrifuged and proteins were preincubated with inhibitors for 40 min. The incubation was followed by the addition of 10 μL of HTRF detection buffer supplemented with Europium cryptate-labeled anti-human IgG (PerkinElmer-AD0212) specific for Fc and anti-His antibody conjugated to SureLight®—Allophycocyanin (APC, PerkinElmer-AD0059H). After centrifugation, the plate was incubated at 25° C. for 60 min. Before reading on a PHERAstar FS plate reader (665 nm/620 nm ratio). Final concentrations in the assay were—3 nM PD1, 10 nM PD-L1, 1 nM europium anti-human IgG and 20 nM anti-His-Allophycocyanin. IC50 determination was performed by fitting the curve of percent control activity versus the log of the inhibitor concentration using the GraphPad Prism 5.0 software.
Data obtained for the Example compounds using the PD-1/PD-L1 homogenous time-resolved fluorescence (HTRF) binding assay described in Example A is provided in Table 2.

Row | SMILES | IC50
1 | O=C(c1nc2c(o1)CN(CCO)CC2)N1CCCc2c(-c3cccc(OCCN4CCOCC4)c3)cccc21 [Example 53, (5-(2-hydroxyethyl)-4,5,6,7-tetrahydrooxazolo[5,4-c]pyridin-2-yl)(5-(3-(2-morpholinoethoxy)phenyl)-3,4-dihydroquinolin-1(2H)-yl)methanone] | 25 to 100 nM
2 | O=C(O)CCN1CCc2nc(C(=O)N3CCCc4c(-c5cccc(OCCN6CCOCC6)c5)cccc43)oc2C1 [Example 54, 3-(2-(5-(3-(2-morpholinoethoxy)phenyl)-1,2,3,4-tetrahydroquinoline-1-carbonyl)-6,7-dihydrooxazolo[5,4-c]pyridin-5(4H)-yl)propanoic acid] | 100 to 200 nM
3 | CN1CCc2nc(C(=O)N3CCc4c(-c5ccc6c(c5)OCCO6)cccc43)sc2C1 [Example 57, (4-(2,3-dihydrobenzo[b][1,4]dioxin-6-yl)indolin-1-yl)(5-methyl-4,5,6,7-tetrahydrothiazolo[5,4-c]pyridin-2-yl)methanone] | ≤ 25 nM
4 | Cc1c(Nc2nccc3cc(CN4CCCC[C@H]4C(=O)O)cnc23)cccc1-c1cccc2c1CCN2C(=O)c1nc2c(s1)CNCC2 [Example 58, (S)-1-((8-((2-methyl-3-(1-(4,5,6,7-tetrahydrothiazolo[5,4-c]pyridine-2-carbonyl)indolin-4-yl)phenyl)amino)-1,7-naphthyridin-3-yl)methyl)piperidine-2-carboxylic acid] | ≤ 25 nM

The next lines start with the values.

Row | IC50 | SMILES
5 | 25 to 100 nM | O=C(O)CN1CCc2nc(C(=O)N3CCc4c(-c5ccc6c(c5)OCCO6)cccc43)sc2C1 [Example 55, 2-(2-(4-(2,3-dihydrobenzo[b][1,4]dioxin-6-yl)indoline-1-carbonyl)-6,7-dihydrothiazolo[5,4-c]pyridin-5(4H)-yl)acetic acid]
6 | ≤ 25 nM | O=C(c1nc2c(s1)CN(CCO)CC2)N1CCc2c(-c3ccc4c(c3)OCCO4)cccc21 [Example 56, (4-(2,3-dihydrobenzo[b][1,4]dioxin-6-yl)indolin-1-yl)(5-(2-hydroxyethyl)-4,5,6,7-tetrahydrothiazolo[5,4-c]pyridin-2-yl)methanone]
